Reference: patent US6057311A, “Benzodiazonine derivatives binding to cholecystokinin or gastrin receptors” (James Black Foundation Limited, priority 1996, dated 2000)

Legend:
CCKB receptor = molecular target: T1, CCKB receptor (Mus musculus, UniProt P56481); assay: radioligand binding assay at the CCKB receptor in mouse cortical membranes ([125I]-CCK8S); details: [125I]-CCK8S 200 pM, 150 min at 21±3° C.; for pKi (Mouse cortex): pH 7.2; for Ki: pH 7.2, read-out: pKi (Mouse cortex) (converted)
T1 construct: The cortex was dissected, weighed and homogenised in 40 ml ice-cold buffer; tissue Charles River (animals); host or cells: cerebral cortex of male CD1 mice, membranes
T1 sequence (P56481 1-453): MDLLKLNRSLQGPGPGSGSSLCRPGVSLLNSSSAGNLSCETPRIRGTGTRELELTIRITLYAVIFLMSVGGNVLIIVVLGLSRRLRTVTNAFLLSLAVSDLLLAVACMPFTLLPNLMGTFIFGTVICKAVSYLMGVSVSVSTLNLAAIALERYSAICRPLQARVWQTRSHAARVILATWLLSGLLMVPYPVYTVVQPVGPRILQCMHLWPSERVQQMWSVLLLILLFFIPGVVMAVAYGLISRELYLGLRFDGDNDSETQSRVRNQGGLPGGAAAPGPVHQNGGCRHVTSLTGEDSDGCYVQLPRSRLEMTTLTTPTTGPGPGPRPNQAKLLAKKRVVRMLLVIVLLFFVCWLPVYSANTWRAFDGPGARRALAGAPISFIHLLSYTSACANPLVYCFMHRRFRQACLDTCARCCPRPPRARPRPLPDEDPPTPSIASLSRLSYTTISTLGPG
Procedure: The compounds of the examples were tested for binding at the CCKB receptor in mouse cortical membranes by means of a radioligand binding assay. The procedure was as follows:
The whole brains from male mice (CD1 22-25 g; Charles River) were removed and placed in ice-cold buffer (pH7.2@21±3° C.) of the following composition (mM); 10 HEPES, 130 NaCl, 4.7 KCl, 5 MgCl2, 1 EDTA and containing 0.25 g.1^-1 bacitracin. The cortex was dissected, weighed and homogenised in 40 ml ice-cold buffer using a Teflon-in-glass homogeniser. The homogenate was centrifuged at 39,800 g for 20 min at 4° C., the supernatant discarded and the pellet resuspended by homogenisation in fresh buffer. The homogenate was recentrifuged (39,800 g; 20 min @4° C.) and the final pellet was resuspended in HEPES buffer to give a tissue concentration of 2 mg.ml^-1 (original wet weight).
The membranes (400 μl) were incubated for 150 min at 21±3° C. in a final volume of 0.5 ml with HEPES buffer containing [^125 I]-CCK8S (0.05 ml; 200 pM NEN 2200 Ci.mmol^-1) and competing compound. Total and non-specific binding of [^125 I]-CCK8S were defined using 0.05 ml of buffer and 0.05 ml of […] L-365,260, respectively. The assay was terminated by rapid filtration through pre-soaked Whatman GF/B filters using a Brandell Cell harvester. The filters were washed (3×3 ml) with ice-cold 50 mM Tris-HCl (pH7.4@4° C.) and bound radioactivity determined by counting (1 min.) in a gamma-counter.

CCKA = molecular target: T2, CCKA (Cavia porcellus, UniProt Q63931); assay: CCKA binding assay, guinea pig pancreas membranes ([125I]-CCK8(S)); details: [125I]-CCK8(S) 200 pM, 0.375 μM PD134,308, 150 min at 21±3° C.; for pKi (Guinea pig pancreas): pH 7.2; for Ki: pH 7.2, read-out: pKi (Guinea pig pancreas) (converted)
T2 construct: The pancreatata were removed from male guinea-pigs; from tissue; host or cells: pancreas of male Dunkin Hartley guinea pigs, membranes
T2 sequence (Q63931 1-430): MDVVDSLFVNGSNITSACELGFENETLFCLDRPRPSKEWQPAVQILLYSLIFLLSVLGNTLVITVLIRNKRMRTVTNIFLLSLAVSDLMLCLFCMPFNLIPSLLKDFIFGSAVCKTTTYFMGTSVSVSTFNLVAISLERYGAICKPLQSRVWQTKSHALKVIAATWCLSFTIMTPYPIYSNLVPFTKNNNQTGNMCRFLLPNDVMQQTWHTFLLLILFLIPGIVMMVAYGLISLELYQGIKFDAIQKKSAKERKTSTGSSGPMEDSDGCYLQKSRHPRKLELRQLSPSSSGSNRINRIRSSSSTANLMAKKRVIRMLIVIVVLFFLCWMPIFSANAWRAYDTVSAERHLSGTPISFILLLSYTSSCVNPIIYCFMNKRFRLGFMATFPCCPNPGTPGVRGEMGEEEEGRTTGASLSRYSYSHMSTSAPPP
Procedure: The compounds of the examples were also tested in a CCKA binding assay as follows:
The pancreatata were removed from male guinea-pigs (200-300 g; Dunkin Hartley) and placed in ice-cold HEPES buffer (pH 7.2@21±3° C.). The pancreatata were homogenised in 40 ml ice-cold HEPES buffer using a polytron (Brinkmann, PT10, setting 10) 4×1 second. The homogenate was centrifuged at 39,800 g for 15 min at 4° C. The supernatant was discarded and the pellet re-suspended using a Teflon-in-glass homogeniser in 20 volumes of fresh buffer and re-centrifuged as above. The final pellet was re-suspended using a Teflon-in-glass homogeniser to a tissue concentration of 1 mg.ml^-1 (original wet weight), and filtered through 500 μm pore-size Nytex mesh.
The membranes (400 μl; containing 0.375 μM PD134,308) were incubated for 150 minutes at 21±3° C. in a final volume of 0.5 ml with HEPES buffer containing [^125 I]-CCK8 (S) (50 μl; 200 pM) and competing compound. Total and non-specific binding of [^125 I]-CCK8 (S) were defined using 50 μl of buffer and 50 μl of 100 nM L-364,718 respectively. The assay was terminated by rapid filtration through pre-soaked Whatman GF/B filters using a Brandell Cell Harvester. The filters were washed (3×3 ml) with ice-cold 50 mM Tris HCl (pH 7.4 at 4° C.) and bound radioactivity was determined by counting (1 min) in a gamma counter.

## 1-benzyl-7-hydroxy-4-(3-methylphenyl)carbamyl-2-oxo-2,3,4,5,6,7-hexahydro- 1H-1,4-benzodiazonine (isomer 1) [Example 7]
CCKB receptor
  pKi (Mouse cortex): 5.0
CCKA
  pKi (Guinea pig pancreas): 5.8

## O=C(O)CCC(=O)N1CCC(=O)c2ccccc2N(Cc2ccccc2)C(=O)C1CC12CC3CC(CC(C3)C1)C2 (racemic) [Example 33, (R/S)-3-(1-adamantyl)methyl-1-benzyl-4-(2-carboxy)ethylcarbonyl-2,7-dioxo-2,3,4,5,6,7-hexahydro-1H-1,4-benzodiazonine]
CCKB receptor
  Ki: 10 µM
CCKA
  Ki: 6.31 µM

## CC(=O)N1CCC(=O)c2ccccc2N(Cc2ccccc2)C(=O)C1CC12CC3CC(CC(C3)C1)C2 (racemic) [Example 34, (R/S)-4-acetyl-3-(1-adamantyl)methyl-1-benzyl-2,7-dioxo-2,3,4,5,6,7-hexahydro-1H-1,4-benzodiazonine]
CCKB receptor
  Ki: 3.98 µM
CCKA
  Ki: 2.51 µM

## Nc1cccc(CN2C(=O)C(CC34CC5CC(CC(C5)C3)C4)N(C(=O)CC(=O)O)CCC(=O)c3ccccc32)c1 (racemic) [Example 35, (R/S)-3-(1-adamantyl)methyl-1-(3-amino)benzyl-4-carboxymethylcarbonyl-2,7-dioxo-2,3,4,5,6,7-hexahydro-1H-1,4-benzodiazonine]
CCKB receptor
  Ki: 2.51 µM
CCKA
  Ki: 7.94 µM

## CC(=O)N1[C@H](CC23CC4CC(CC(C4)C2)C3)C(=O)N(Cc2ccccc2)c2ccc(F)cc2C(=O)C[C@H]1C(=O)NCC(=O)O (relative stereo) [Example 61, (+/-)-trans-4-acetyl-3-(1-adamantyl)methyl-1-benzyl-5-carboxymethylaminocarbonyl-2,7-dioxo-9-fluoro-2,3,4,5,6,7-hexahydro-1H-1,4-benzodiazonine]
CCKB receptor
  Ki: 0.398 µM
CCKA
  Ki: 12.6 µM

## CC(=O)N1[C@H](CC23CC4CC(CC(C4)C2)C3)C(=O)N(Cc2ccccc2)c2ccccc2C(=O)C[C@H]1C(=O)N1CCC[C@H]1C(=O)O (single isomer, unassigned; isomer 1) [Example 27]
CCKB receptor
  pKi (Mouse cortex): 5.0
CCKA
  pKi (Guinea pig pancreas): 5.0

## CC(=O)N1[C@H](CC23CC4CC(CC(C4)C2)C3)C(=O)N(Cc2ccccc2)c2ccccc2C(=O)C[C@H]1C(=O)N(C)CC(=O)O (single isomer, unassigned; isomer 1) [Example 29]
CCKB receptor
  pKi (Mouse cortex): 5.5
CCKA
  pKi (Guinea pig pancreas): 5.2

## Cc1cccc(NC(=O)N2CCC(O)c3ccccc3N(Cc3ccccc3)C(=O)C2)c1 (single isomer, unassigned; isomer 2) [Example 8, 1-benzyl-7-hydroxy-4-(3-methylphenyl)carbamyl-2-oxo-2,3,4,5,6,7-hexahydro-1H-1,4-benzodiazonine (isomer 2)]
CCKB receptor
  Ki: 10 µM
CCKA
  Ki: 1 µM

## CC(=O)N1[C@H](CC23CC4CC(CC(C4)C2)C3)C(=O)N(Cc2ccccc2)c2ccccc2C(=O)C[C@H]1C(=O)N1CCC[C@H]1C(=O)O (single isomer, unassigned; isomer 2) [Example 28]
CCKB receptor
  pKi (Mouse cortex): 5.4
CCKA
  pKi (Guinea pig pancreas): 4.6

## CC(=O)N1[C@H](CC23CC4CC(CC(C4)C2)C3)C(=O)N(Cc2ccccc2)c2ccccc2C(=O)C[C@H]1C(=O)N(C)CC(=O)O (single isomer, unassigned; isomer 2) [Example 30]
CCKB receptor
  pKi (Mouse cortex): 5.0
CCKA
  pKi (Guinea pig pancreas): 5.1

## Cc1cccc(NC(=O)N2CCC(=O)c3ccccc3N(CC(=O)OC(C)(C)C)C(=O)C2)c1 [Example 1, 1-tert-butyloxycarbonylmethyl-4-(3-methylphenyl)carbamyl-2,7-dioxo-2,3,4,5,6,7-hexahydro-1H-1,4-benzodiazonine]
CCKB receptor
  Ki: 10 µM
CCKA
  Ki: 0.2 µM

## CC(C)(C)OC(=O)CN1C(=O)CN(C(=O)Nc2ccc(Cl)c(Cl)c2)CCC(=O)c2ccccc21 [Example 2, 1-tert-butyloxycarbonylmethyl-4-(3,4-dichlorophenyl)-carbamyl-2,7-dioxo-2,3,4,5,6,7-hexahydro-1H-1,4-benzodiazonine]
CCKB receptor
  Ki: 1.26 µM
CCKA
  Ki: 0.0501 µM

## Cc1cccc(NC(=O)N2CCC(=O)c3ccccc3N(Cc3ccccc3)C(=O)C2)c1 [Example 3, 1-benzyl-4-(3-methylphenyl)carbamyl-2,7-dioxo-2,3,4,5,6,7-hexahydro-1H-1,4-benzodiazonine]
CCKB receptor
  Ki: 7.94 µM
CCKA
  Ki: 0.316 µM

## CCOC(=O)CN1C(=O)CN(C(=O)Nc2cccc(C)c2)CCC(=O)c2ccccc21 [Example 4, 1-ethoxycarbonylmethyl-4-(3-methylphenyl)carbamyl-2,7-dioxo-2,3,4,5,6,7-hexahydro-1H-1,4-benzodiazonine]
CCKB receptor
  Ki: 10 µM
CCKA
  Ki: 3.16 µM

## Cc1cccc(NC(=O)N2CCC(=O)c3ccccc3NC(=O)C2)c1 [Example 5, 4-(3-methylphenyl)carbamyl-2,7-dioxo-2,3,4,5,6,7-hexahydro-1H-1,4-benzodiazonine]
CCKB receptor
  Ki: 10 µM
CCKA
  Ki: 5.01 µM

## Cc1cccc(NC(=O)N2CCC(=O)c3ccccc3N(CC(=O)N3CCCC3)C(=O)C2)c1 [Example 6, 4-(3-methylphenyl)carbamyl-2,7-dioxo-1-pyrrolidinoyl-methyl-2,3,4,5,6,7-hexahydro-1H-1,4-benzodiazonine]
CCKB receptor
  Ki: 10 µM
CCKA
  Ki: 5.01 µM

## C=C1CCN(C(=O)Nc2cccc(C)c2)CC(=O)N(Cc2ccccc2)c2ccccc21 [Example 9, 1-benzyl-7-methylene-4-(3-methylphenyl)carbamyl-2-oxo-2,3,4,5,6,7-hexahydro-1H-1,4-benzodiazonine]
CCKB receptor
  Ki: 3.98 µM
CCKA
  Ki: 0.316 µM

## Cc1cccc(NC(=O)N2CCC(C)c3ccccc3N(Cc3ccccc3)C(=O)C2)c1 (centres unmarked) [Example 10, 1-benzyl-7-methyl-4-(3-methylphenyl)carbamyl-2-oxo-2,3,4,5,6,7-hexahydro-1H-1,4-benzodiazonine]
CCKB receptor
  Ki: 2.51 µM
CCKA
  Ki: 0.316 µM

## CC(=O)N1[C@H](CC23CC4CC(CC(C4)C2)C3)C(=O)N(Cc2ccccc2)c2ccccc2C(=O)C[C@H]1C(=O)O [Example 11, (3R,5S) 4-acetyl-3-[(1-adamantyl)methyl]-1-benzyl-2,7-dioxo-2,3,4,5,6,7-hexahydro-1H-1,4-benzodiazonine-5-carboxylate]
CCKB receptor
  Ki: 1 µM
CCKA
  Ki: 5.01 µM
